Measurements: patent publication US20250339462A1, “CANCER TREATMENT USING ULTRA-HIGH CONCENTRATION GASEOUS NITRIC OXIDE AND A CHECKPOINT INHIBITOR” (Beyond Air, Inc., priority 2022, published 2025)
Entries after “also recorded” stand apart in the source; their conditions may differ.

Columns and labels:
4T1 tumor-bearing mice = assay: 4T1 breast cancer model, UNO/Anti-CTLA-4 Repeated dose study; assay type: in vivo, mouse
Protocol: Preparation of 4T1 cells: Cancer cell suspension, in Hanks' Balanced Salt Solution (HBSS) (Biological Industries, Israel), at a concentration of 5.0×10^6 cells/ml was freshly prepared on the day of the cancer model induction. Cells were grown to a 70-80% confluency and harvested using trypsin. The cells were centrifuged at 1,200 revolutions per minute (rpm)—241 G for 8 minutes, then the pellet was re-suspended in 1 ml of HBSS. The cells were counted using an automated cell counter and a suspension with a concentration of 5.0×10^6 cells/ml was prepared. Cell viability must be above 90% before cell inoculation to the mice, otherwise new cells will need to be prepared. At the point of inoculation, cells will be at passage 8 at most. The cell suspension was then aspirated into a 1 ml syringe with a 27 G needle, for subcutaneous (s.c.) injection. All injection volume was used and was not re-introduced into the stock solution.
Inoculation of 4T1 cancer cells to mice—Cancer cell suspension at a concentration of 5.0×10^6 cells/ml was inoculated to the right flank of animals at a volume of 100 μl per mouse. Female Balb/c mice were inoculated with 100 μl of 5.0×10^6 4T1 cells/ml. Administration was performed as soon as possible following cell preparation and after manual shaking prior to withdrawal of cell suspension. Injections were performed using a 1 ml syringe and a 27 G needle where withdrawal is done without the needle.
UNO and N2 treatment—On the day of treatment, mice were anesthetized by an intraperitoneal (i.p.) injection of 100 mg/kg of ketamine and 10 mg/kg of xylazine hydrochloride solution. Tumor-bearing mice were treated with either N2 or UNO at 50,000 ppm or 100,000 ppm. UNO at 50,000 ppm was administered intratumorally by a 23 G needle for 10 minutes, at 0.2 LPM and 2 bar exit pressure. UNO at 100,000 ppm was administered intratumorally by a 23 G needle for 2 minutes, at 0.2 LPM and 2 bar exit pressure. After treatment, all mice were warmed and closely monitored until complete recovery was observed.
Injection of anti-CTLA-4—Anti-CTLA-4 was administered up to 5 times intraperitoneally (i.p.) at a dose of 5 mg/kg, i.p., using a 1 ml syringe with a 27 G needle. The injection was administered to approximately the same location each time.
UNO/Anti-CTLA-4 Repeated dose study—Balb/c mice (60) were inoculated with mouse breast cancer carcinoma (4T1) cells injected subcutaneously (s.c.) to the right flank. […]
Primary tumor volume progression was monitored twice a week by measuring the tumor using a digital caliper calculated as: […]
Mice survival was evaluated. Mice that reached a tumor volume of ≥1500 mm^3 and/or a score of 12 were humanely euthanized, and the time of death was recorded. Metastases development was evaluated postmortem.

CT26 tumor-bearing mice = assay: CT26 tumor model, UNO + anti-mPD-1 + CpG-B; assay type: in vivo, mouse
Protocol: Preparation of cancer cells for injection—Mouse colon carcinoma CT26.WT cells (ATCC, Cat no. CRL-2638) suspended in Hanks' Balanced Salt Solution (HBSS) (Biological Industries, Israel), at a concentration of 5.0×10^6 cells/ml, were freshly prepared on the day of cancer model induction. Cells were grown to 70% confluency and were harvested using trypsin (Biological Industries, Israel), and counted using a cell counter device. The cells were then centrifuged at 1,200 rpm (241×g) for 8 minutes, and the pellet was re-suspended in ice cold HBSS at 5.0×10^6 in 1 ml (5.0×10^5 cells in 100 μl solution). Cell viability was >90% as determined by trypan blue staining prior to inoculation to mice. At the point of inoculation, cells were at passage 8 at most.
Inoculation of CT26 cancer cells to mice—100 μl/mouse of the_CT26 cancer cells suspension (concentration of 5.0×10^6 cells/ml) were inoculated subcutaneously (s.c.) to the right flank of male BALB/c mice, which were 10 weeks of age (Envigo, the Netherlands). Five days later, CT26 cells at the same dose were inoculated s.c. to the left flank of each mouse. Ten days post primary tumor inoculation tumor-bearing mice were divided into the following groups (day 0) as depicted in Table 2 below and treated according to the timeline shown in FIG. 20:
Mice were followed up for totally 52 days. Tumor take was monitored by palpation of the flank and tumor growth was monitored by measurement of the tumor dimensions using a digital caliper. Mice were sacrificed and excluded from the study if their total tumor volume was >1500 mm^3 or their distress scoring >12 as was accepted according to the IACUC IL-2112-105-5.
UNO treatment—On the day of treatment, mice were anesthetized by an intraperitoneal (i.p.) injection of 100 mg/kg ketamine and 10 mg/kg of xylazine hydrochloride solution. Tumor-bearing mice were treated with 50,000 ppm of UNO delivered into the tumor by a 23 G needle over 5 minutes, at 0.2 LPM. After treatment, all mice were warmed and closely monitored until complete recovery was observed. […]

[N]=O [UNO, nitric oxide]
Survival hazard ratio vs anti-mCTLA-4 (4T1 tumor-bearing mice; FIG. 14C, Cox model): 0.16
Survival hazard ratio vs untreated (4T1 tumor-bearing mice; FIG. 14C, Cox model): 0.31
Mice survival vs anti-mCTLA-4 monotherapy (4T1 tumor-bearing mice; UNO twice (FIG. 14C)): prolonged survival; also recorded: significantly prolongs mice survival
Tumors smaller compared to only anti-mCTLA-4 (4T1 tumor-bearing mice; only UNO, 100,000 ppm 2 min twice, day 13 after first UNO treatment, P=0.1158): 12.9%
Percentage of mice with primary tumor complete regression (CT26 tumor-bearing mice; 42 days after treatments (FIG. 16)): 10%
Distant tumor rejection, percentage of mice (CT26 tumor-bearing mice; 42 days following treatments (FIG. 17)): 11%
Percentage of group surviving (CT26 tumor-bearing mice; 52 days following primary tumor inoculation): 10%
